Where “and” joins values, the source holds several entries; their conditions need not be identical. Equal values may be shown once. Inconclusive results and toxic doses are left out.

The test concerns P388 leukemia ip, CD2F1 mice, survival T/C. The test is described as follows: NCI In Vivo Anticancer Drug Screen. Data for tumor model P388 Leukemia (intraperitoneal) in CD2F1 (CDF1) mice. Particulars: endpoint: median survival time, higher = longer survival. In outline:
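Mice carrying the transplanted tumor received test compound or vehicle. Survival was recorded in each group, and the value is the treated-group measurement divided by that of the vehicle-treated control group.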

The mark [1] stands for this setting: dose: 50.0 mg/kg/injection, schedule: Q01DX005 (ip), vehicle: saline with Tween-80.
[2] abbreviates: dose: 100.0 mg/kg/injection, schedule: Q01DX005 (ip), vehicle: saline with Tween-80.
[3] abbreviates: dose: 200.0 mg/kg/injection, schedule: Q01DX005 (ip), vehicle: saline with Tween-80.
The mark [4] stands for this setting: dose: 50.0 mg/kg/injection, schedule: Q01DX005 (ip), vehicle: Klucel (hydroxypropylcellulose) (HPC).
The mark [5] stands for this setting: dose: 200.0 mg/kg/injection, schedule: Q01DX005 (ip), vehicle: Klucel (hydroxypropylcellulose) (HPC).
Where [6] appears, read: dose: 60.0 mg/kg/injection, schedule: Q01DX005 (ip), vehicle: saline with Tween-80.
[7] abbreviates: dose: 120.0 mg/kg/injection, schedule: Q01DX005 (ip), vehicle: saline with Tween-80.
Setting [8] is: dose: 240.0 mg/kg/injection, schedule: Q01DX005 (ip), vehicle: saline with Tween-80.
The mark [9] stands for this setting: dose: 100.0 mg/kg/injection, schedule: Q01DX001 (ip), vehicle: saline with Tween-80.
Setting [10] is: dose: 200.0 mg/kg/injection, schedule: Q01DX001 (ip), vehicle: saline with Tween-80.
[11] abbreviates: dose: 50.0 mg/kg/injection, schedule: Q01DX009 (ip), vehicle: saline with Tween-80.
Where [12] appears, read: dose: 100.0 mg/kg/injection, schedule: Q01DX009 (ip), vehicle: saline with Tween-80.
[13] abbreviates: dose: 100.0 mg/kg/injection, schedule: Q04DX003 (ip), vehicle: saline with Tween-80.
The mark [14] stands for this setting: dose: 200.0 mg/kg/injection, schedule: Q04DX003 (ip), vehicle: saline with Tween-80.
The mark [15] stands for this setting: dose: 50.0 mg/kg/injection, schedule: Q01DX009 (ip), vehicle: Klucel (hydroxypropylcellulose) (HPC).
[16] abbreviates: dose: 100.0 mg/kg/injection, schedule: Q01DX009 (ip), vehicle: Klucel (hydroxypropylcellulose) (HPC).
Where [17] appears, read: dose: 200.0 mg/kg/injection, schedule: Q01DX009 (ip), vehicle: Klucel (hydroxypropylcellulose) (HPC).
The mark [18] stands for this setting: dose: 12.5 mg/kg/injection, schedule: Q01DX009 (ip), vehicle: saline.
The mark [19] stands for this setting: dose: 25.0 mg/kg/injection, schedule: Q01DX009 (ip), vehicle: saline.
Setting [20] is: dose: 50.0 mg/kg/injection, schedule: Q01DX009 (ip), vehicle: saline.
[21] abbreviates: dose: 100.0 mg/kg/injection, schedule: Q01DX005 (ip), vehicle: Klucel (hydroxypropylcellulose) (HPC).

Take `CC(C)=C(C#C[Si](C)(C)C)OS(=O)(=O)C(F)(F)F`: the T/C reads like this: under setting [1], 100 % of control; under setting [2], 101 % of control; under setting [3], 101 % of control.

For `Brc1cc2c(cc1CC1NCCc3cc4c(cc31)OCO4)OCO2` (centres undefined), the T/C was 97 % of control (dose: 50.0 mg/kg/injection, schedule: Q01DX001 (ip), vehicle: saline + alcohol); 100 % of control (dose: 100.0 mg/kg/injection, schedule: Q01DX001 (ip), vehicle: saline + alcohol); 103 % of control (dose: 200.0 mg/kg/injection, schedule: Q01DX001 (ip), vehicle: saline + alcohol).

For `O=C(CNNC(=O)c1ccncc1)Nc1ccc(S(=O)(=O)c2ccc(NC(=O)CNNC(=O)c3ccncc3)cc2)cc1`, the T/C was 89 % of control (dose: 25.0 mg/kg/injection, schedule: Q01DX005 (ip), vehicle: Klucel (hydroxypropylcellulose) (HPC)); 90 % of control and 91 % of control under setting [4]; 86 % of control under setting [5].

Regarding `CCO/C(C)=N\P(=O)(Oc1ccccc1)Oc1ccccc1`, the T/C was 105 % of control (dose: 12.5 mg/kg/injection, schedule: Q01DX009 (ip), vehicle: distilled water + Tween-80); 102 % of control (dose: 25.0 mg/kg/injection, schedule: Q01DX009 (ip), vehicle: distilled water + Tween-80); 110 % of control (dose: 50.0 mg/kg/injection, schedule: Q01DX009 (ip), vehicle: distilled water + Tween-80); 102 % of control (dose: 100.0 mg/kg/injection, schedule: Q01DX009 (ip), vehicle: distilled water + Tween-80).

In the case of `O=S(=O)(c1ccccn1)c1nc2ccccc2s1`, the T/C is 94 % of control under setting [6], 90 % of control under setting [7] and 94 % of control under setting [8].

Consider `ClC1=C(Cl)N(C2=NCCC2)CC1`, for which the T/C reads like this: (dose: 6.25 mg/kg/injection, schedule: Q01DX009 (ip), vehicle: Klucel (hydroxypropylcellulose) (HPC)) 96 % of control; (dose: 12.5 mg/kg/injection, schedule: Q01DX009 (ip), vehicle: Klucel (hydroxypropylcellulose) (HPC)) 99 % of control; (dose: 25.0 mg/kg/injection, schedule: Q01DX009 (ip), vehicle: Klucel (hydroxypropylcellulose) (HPC)) 99 % of control.

In the case of `CCSc1cccc2nnc(C(C)(C)C)n12`, the T/C reads like this: under setting [9], 98 % of control; under setting [10], 99 % of control; (dose: 400.0 mg/kg/injection, schedule: Q01DX001 (ip), vehicle: saline with Tween-80) 97 % of control.

As to `CCCCCCCCN(/N=C/c1c2c(O)c3c(O)c(C)c4c(c3c1O)C(=O)C(C)(O/C=C/C(OC)C(C)C(OC(C)=O)C(C)C(O)C(C)C(O)C(C)/C=C/C=C(C)C(=O)N2)O4)C1OC(COC(=O)c2ccccc2)C(OC(=O)c2ccccc2)C1OC(=O)c1ccccc1` (centres undefined), the T/C under setting [11] was 102 % of control; the T/C under setting [12] was 102 % of control; the T/C (dose: 200.0 mg/kg/injection, schedule: Q01DX009 (ip), vehicle: saline with Tween-80) was 107 % of control.

As for `CN(C)c1ccc(/C=C(/C#N)c2ccc(Cl)cc2)cc1`, the T/C (dose: 50.0 mg/kg/injection, schedule: Q04DX003 (ip), vehicle: saline with Tween-80) is 97 % of control; the T/C under setting [13] was 92 % of control; the T/C under setting [14] was 92 % of control; the T/C (dose: 400.0 mg/kg/injection, schedule: Q04DX003 (ip), vehicle: saline with Tween-80) was 92 % of control.

With `C=Cn1c([N+](=O)[O-])cnc1/C=C/c1ccc(C(=O)O)cc1`, the T/C is 92 % of control and 97 % of control under setting [15]; 89 % of control and 90 % of control under setting [16]; 95 % of control under setting [17].

As to `CN(C)C(=O)C[n+]1ccccc1`, the T/C by setting is: under setting [18], 99 % of control; under setting [19], 98 % of control; under setting [20], 101 % of control.

With `CCOC(=O)N1CCN(C(=O)c2nc3ccccc3[nH]2)CC1`, the T/C reads like this: under setting [4], 99 % of control; under setting [21], 101 % of control; under setting [5], 95 % of control.

On to `CN1CC2(CO)C(c3ccccc3)OC(c3ccccc3)C(CO)(C1)C2O` (centres undefined), for which the T/C was 104 % of control and 100 % of control under setting [6]; 107 % of control and 100 % of control under setting [7]; 96 % of control under setting [8].

On to `Cc1ccccc1SSc1ccccc1C`, for which the T/C under setting [11] was 113 % of control.

For `CN(C)/N=C1\C(=O)Nc2c(Cl)cc(Cl)cc21`, the T/C is, setting by setting: under setting [15], 94 % of control; under setting [16], 94 % of control; under setting [17], 94 % of control.

Take `O=C(Nc1ccccc1)Nc1c2c(nc3ccccc13)CCCCC2`: the T/C reads like this: under setting [1], 86 % of control; under setting [2], 89 % of control; under setting [3], 90 % of control.

`CCN(CC)Cc1c(C)[nH]c2c(ccc3c2ccc2c(=O)c(CN(CC)CC)c(C)[nH]c23)c1=O`: the T/C is 93 % of control under setting [15], 91 % of control under setting [16] and 96 % of control under setting [17].

As to `O=C(CBr)CC(O)(C(F)(F)F)C(F)(F)F`, the T/C (dose: 3.0 mg/kg/injection, schedule: Q04DX003 (ip), vehicle: saline) was 100 % of control; the T/C (dose: 6.0 mg/kg/injection, schedule: Q04DX003 (ip), vehicle: saline) was 100 % of control; the T/C (dose: 12.0 mg/kg/injection, schedule: Q04DX003 (ip), vehicle: saline) is 91 % of control.

`CC1=C(O[Si](C)(C)C)CCC1=O`: the T/C under setting [1] is 113 % of control, the T/C under setting [2] was 105 % of control and the T/C under setting [3] was 106 % of control.

In the case of `O=C(CCC(=O)Nc1ccccc1[N+](=O)[O-])CC(=O)c1ccc(Br)cc1`, the T/C reads like this: under setting [6], 105 % of control; under setting [7], 106 % of control; under setting [8], 106 % of control.

With `c1ccc2nc(N3CCCC3)c(N3CCCCCC3)nc2c1`, the T/C by setting is: under setting [4], 100 % of control; under setting [21], 100 % of control; under setting [5], 107 % of control.

For `CCNc1snc2c1c(=O)[nH]c(=O)n2Cc1ccccc1`, the T/C runs as follows: under setting [18], 86 % of control; under setting [19], 90 % of control; under setting [20], 98 % of control and 92 % of control.

`O=c1oc2ccccc2c(O)c1C(c1ccc2c(c1)OCO2)N1CCCC1` (centres undefined): the T/C is 100 % of control (dose: 15.0 mg/kg/injection, schedule: Q01DX005 (ip), vehicle: saline with Tween-80); 102 % of control (dose: 30.0 mg/kg/injection, schedule: Q01DX005 (ip), vehicle: saline with Tween-80); 99 % of control and 103 % of control under setting [6].

As for `CC1(c2ccccc2)NN(S(=O)(=O)c2ccccc2)C(c2ccccc2)(c2ccccc2)/C1=N/Nc1ccccc1` (centres undefined), the T/C reads like this: (dose: 50.0 mg/kg/injection, schedule: Q01DX001 (ip), vehicle: saline with Tween-80) 93 % of control; under setting [9], 88 % of control; under setting [10], 89 % of control.

As for `CN(C)c1ccc(/C=C/c2ccc3ccccc3n2)cc1`, the T/C runs as follows: (dose: 25.0 mg/kg/injection, schedule: Q01DX009 (ip), vehicle: saline with Tween-80) 95 % of control; under setting [11], 100 % of control; under setting [12], 100 % of control; under setting [13], 100 % of control.

Consider `CCCCCCCCC[N+]1(CC)CCCC1`, for which the T/C is 117 % of control (dose: 6.25 mg/kg/injection, schedule: Q01DX009 (ip), vehicle: saline); 117 % of control under setting [18]; 91 % of control under setting [19].

On to `O=C1Cc2ccccc2C(=O)N1`, for which the T/C under setting [13] was 100 % of control and the T/C under setting [14] is 95 % of control.

In the case of `CC(=O)CNc1ccccc1C(N)=O`, the T/C by setting is: under setting [4], 101 % of control; under setting [21], 95 % of control; under setting [5], 104 % of control.

Turning to `Fc1ccc2nc3ccccc3c(SCCCCCSc3c4ccccc4nc4ccc(F)cc34)c2c1`, the T/C reads like this: (dose: 60.0 mg/kg/injection, schedule: Q01DX005 (ip), vehicle: Klucel (hydroxypropylcellulose) (HPC)) 94 % of control; (dose: 120.0 mg/kg/injection, schedule: Q01DX005 (ip), vehicle: Klucel (hydroxypropylcellulose) (HPC)) 90 % of control.

For `C=CCOc1cc2c(cc1C(C)c1ccc(OC)c(C)c1)OCO2` (centres undefined), the T/C reads like this: under setting [1], 100 % of control; under setting [2], 95 % of control; under setting [3], 120 % of control.

These data come from PubChem BioAssay AID330 (DTP/NCI, 2004).
